# Measurements as given in a melting point compilation (Tetko et al.; mined from patent text by program, amines drawn as free bases though some values may be those of a salt).
row,SMILES,melting point
1,CN1CCC(Nc2cccc(NC(=O)OC(C)(C)C)c2)CC1,124 to 125 °C
2,COc1ccc(Nc2nc(-c3cccc(C(=O)Nc4ccc(C(=O)OCc5ccccc5)cc4)c3)cn3ccnc23)cc1OC,154 to 160 °C
3,CCCCc1c(-c2ncccc2C(=O)O)n(-c2ccccc2)n(-c2ccccc2)c1=O,139 to 141 °C
4,CCC(CC)c1ccc(C#N)c2nc(Oc3ccc(Cl)cc3Br)n(C)c12,136 to 137 °C
5,Cc1ccc(S(F)(F)(F)(F)F)cc1[N+](=O)[O-],29 to 30 °C
6,COc1cc(Br)c2nc(-c3ccc(OC)c(F)c3)cc(Br)c2c1,178 to 179 °C
7,Cc1cc(C)c2c(c1O)C(N1CCCC1)C1CCCCC21 (stereo not drawn),96 to 97 °C
8,Cc1cc(NS(=O)(=O)c2nc3nc(Cl)cc(Cl)n3n2)ccc1Br,232 to 234 °C
9,O=C1O[C@@H](Cn2ccnn2)CN1c1ccc(-c2ccc(CN3CCOCC3)nc2)c(F)c1,175 °C
10,Cc1ccc2ncc3nc(C(F)(F)F)n(C)c3c2c1,220 to 223 °C
11,Cc1cccc(-c2nc(N)sc2-c2ccnc(F)c2)c1,214 to 218 °C
12,CCCn1nc(-c2c(-c3ccccc3)nn3ccc(OC)cc23)ccc1=O,174 °C
13,OCCCc1ccc(Nc2ncc(-c3ccccc3)s2)nc1,153 to 154 °C
14,CC=CC1=C(O)C(=O)c2ccccc2C1=O,133 to 134 °C
15,CCCCOc1nc2cc(C)nn2c2c1cnc1c2cnn1CC,103 to 104 °C
16,C[C@@H](c1ccc(F)cc1)N1Cc2cncn2C(C)(c2ccc(C#N)cc2)C1=O (stereo partly drawn),78 to 82 °C
17,CNC1=Nc2sc(Cl)cc2C(c2ccccc2Cl)=NC1,259 to 262 °C
18,CCC(C)S(=O)(=O)c1snc(OC(F)F)c1C#N (stereo not drawn),42 to 43 °C
19,Cc1cc(CC2(Cc3ccncc3)c3cccnc3-c3ncccc32)cc(C)n1,> 240 °C
20,Cc1oc(C2(C)CC=CCC2)nc1CC(=O)O (stereo not drawn),144 to 145 °C
21,N#Cc1c(Cl)ccc(C(=O)O)c1Cl,230 to 232 °C
22,O=C(Oc1ccccc1)N1CCC(S(=O)(=O)c2ccccc2F)CC1,160 to 161 °C
23,COc1ccc2nc(NC(=O)C(CC3CCCC3)c3ccc(S(=O)(=O)NCc4ccccc4)cc3)sc2n1 (stereo not drawn),237 to 240 °C
24,CCOC(=O)Nc1ccc2c3c(n(CCCN(C)C)c2c1)CCCCCC3,119 to 123 °C
25,NS(=O)(=O)c1cc(S(=O)(=O)N(N2CCCCC2)N2CCCCC2)c(Cl)cc1Cl,170 °C

row,SMILES,melting point
1,CC(C)(C)OC(=O)N1CCc2c(n(CCO)c3cc(Cl)c(Cl)cc23)CC1,130 to 133 °C
2,NS(=O)(=O)c1cc2c(s1)S(=O)(=O)CC(O)C2O (stereo not drawn),182 to 185 °C
3,COc1cc2c(cc1Nc1ncc(Cl)c(Nc3ccccc3S(=O)(=O)N(C)C)n1)CCN(CC(=O)N1CCN(C)CC1)CC2,140 °C
4,CC(=O)N=C(OC(C)=O)N1CCSC1c1ccccc1OCCN1CCN(c2cccc(F)c2)CC1 (stereo not drawn),114 to 115 °C
5,Cc1c(Cl)ccc2cc(C(F)(F)F)c(C(F)(F)F)nc12,70 to 73 °C
6,CCCCCCCCCC(C)(C)c1cc(C(=O)O)ccc1OC,112 °C
7,O=C1COc2c(cc(Cl)cc2C(=O)NC2CCN(Cc3ccccc3)CC2)N1,203 to 206 °C
8,N#CSc1ccc(N)c([N+](=O)[O-])c1,110 to 112 °C
9,CC(=O)OC1CCCCC1n1c(Br)nc2cc(Cl)c(Cl)cc21 (stereo not drawn),167 to 169 °C
10,O=C=Nc1ccc(OCC(=O)OCCOC(=O)COc2ccc(N=C=O)cc2)cc1,96 to 98 °C
11,O=S(=O)(NC(=NO)Nc1ccc(Cl)cc1)c1cc(S(=O)(=O)c2ccccc2)cs1,195 °C
12,CC[C@@]1(O)CC(=O)c2c(OC)ccc(OC)c2C1,132 to 134 °C
13,O=S(=O)(NCCCCOc1ccc(-n2ccnc2)cc1)c1cc(Cl)ccc1Cl,144 to 146 °C
14,Cc1c[nH]c2c(=O)n(CC(=O)NC3CC(=O)OC3OCc3ccccc3)cnc12 (stereo not drawn),240 to 244 °C
15,O=C(O)COCCN1CCN(C(c2ccccc2)c2ccccc2)CC1,100 °C
16,CN(C)C(=O)C1(c2cc(C#N)ccc2O)CCCC1,144 to 146 °C
17,O=C(O)c1cc2c(c(C(=O)O)c1)NCCC2,298 to 299 °C
18,O=C1Nc2ccc(I)cc2C1=NNC(=O)C1CCN(C(=O)c2ccccc2)CC1,160 °C
19,COc1cc2c(cc1C#Cc1ccccc1)NC(=O)CC(c1cccc(C#N)c1)=N2,> 250 °C
20,COC1=C(OC)C(=O)C2=C(CC(CCCCOc3ccc(C(=O)O)cc3)C2)C1=O,149 to 153 °C
21,Cc1ccccc1C(=O)Nc1ccc(C(=O)N2Cc3cccn3Cc3ccccc32)cc1,212 to 215 °C
22,CC(C(=O)O)c1ccc(-c2nc3ccccc3o2)c(F)c1 (stereo not drawn),168 to 171 °C
23,C=CCC(CC)(CC)C(=O)O[C@H]1C[C@H](O)C=C2C=C[C@H](C)[C@H](CC[C@@H]3C[C@@H](O)CC(=O)O3)[C@H]21,107 to 108 °C
24,Nc1ccc(-c2noc(-c3cnn4c(C(F)(F)F)cc(-c5ccc(Cl)c(Cl)c5)nc34)n2)cn1,289 °C
25,Cc1cn(C(C)C(=O)N(C)C)nc1-c1ccc(Cl)s1 (stereo not drawn),112 to 114 °C

row,SMILES,melting point
1,O=C(O)c1ccc(N2C(=O)C3C4C=CC(C4)C3C2=O)cc1 (stereo not drawn),224 to 228 °C
2,CC1CC=CCN1Cc1ccc(O)cc1 (stereo not drawn),109 to 112 °C
3,CCCc1nc2c(N)nc3cc(OCCc4ccc(F)cc4)ccc3c2s1,145 to 148 °C
4,CCOC(=O)CSCc1cccc(-c2c(CC(=O)Nc3ccc(F)cc3C(F)(F)F)c(=O)oc3cc(Cl)c(C)cc23)c1,106 to 108 °C
5,Cc1oc(-c2ccccc2)nc1CCOc1ccc(C=CC#N)cc1,112 to 113 °C
6,CS(=O)(=O)Nc1cc([C@@H](O)CNC2CCN(c3ccc(NC(=O)CCC4CCCC4)cc3)CC2)ccc1O,82 to 90 °C
7,Oc1ccc(C2(c3cccc(O)c3)c3ccccc3-c3ccccc32)cc1,221 °C
8,O=C(CBr)Nc1ccc(Cl)cc1C(=O)c1c(F)cccc1F,146 to 148 °C
9,CCOc1nn(Cc2ccc(OCc3nc(-c4ccccc4)oc3C)cn2)cc1CCC(=O)O,133 to 134 °C
10,O=C(O)CCc1ccc([N+](=O)[O-])cc1,162 to 164 °C
11,CC(C#N)c1ccc(Cc2ccccc2CC#N)cc1 (stereo not drawn),61 to 64 °C
12,CCCCNS(=O)(=O)CC(O)C(O)C(CC1CCCCC1)NC(=O)C(Cc1c[nH]cn1)NS(=O)(=O)CCc1ccccc1 (stereo not drawn),208 to 210 °C
13,ClC(Cl)(Cl)c1cnnc2ccccc12,137 °C
14,Cc1cc(-c2ccccc2)nnc1NN,162 °C
15,O=C(O)CC1Sc2ccc([N+](=O)[O-])cc2CN(CCc2ccccc2)C1=O (stereo not drawn),210 to 214 °C
16,CCC(CC)c1ccc(Cl)c2nc(Nc3ccc(Br)cc3C)n(CCCCO)c12,151 to 152 °C
17,CCn1cc(C(=O)O)c(=O)c2cc(F)c(N3CCN4CCC3C4)nc21 (stereo not drawn),228 to 229 °C
18,O=C(O)C=NOC(CCCc1ccc(Cl)cc1)c1ccc(OCc2ccc3ccccc3n2)cc1 (stereo not drawn),174 to 177 °C
19,Cc1ccc(S(=O)(=O)C2CCCN(S(=O)(=O)c3ccc(C)cc3)C2)cc1 (stereo not drawn),124 to 142 °C
20,CC(c1ccc(OCC(=O)Nc2ccc(-c3ccc(Cl)cc3)cc2)cc1)N1CCCC1 (stereo not drawn),156 to 158 °C
21,CC(C)[C@H](NC(=O)CN)c1nc2c(C(F)(F)F)cccc2c(O)c1C(=O)Nc1nccs1,230 °C
22,Cc1cc2c(c(C)c1N)C(c1ccc(C(C)C)cc1)CO2 (stereo not drawn),53 to 55 °C
23,CC(C)(C)OC(=O)N1CCC(c2nc3cc(-c4ccc(S(C)(=O)=O)c(F)c4)ccc3o2)CC1,174 to 178 °C
24,Cc1sc(N2C(=O)OCC2(C)C)nc1-c1ccc(C#N)cc1,192 to 193 °C
25,CC(=O)OCC1OC(n2cc(C3=C(c4c[nH]c5ncccc45)C(=O)N(COCc4ccccc4)C3=O)c3cccnc32)C(OC(C)=O)C(OC(C)=O)C1OC(C)=O (stereo not drawn),127 to 129 °C

row,SMILES,melting point
1,O=c1[nH][nH]c2c1c(O)nc1cc(Cl)ccc12,> 350 °C
2,O=C1CCC(N2C(=O)c3cccc(CNC(=O)Nc4ccc5ccccc5c4)c3C2=O)C(=O)N1 (stereo not drawn),201 to 203 °C
3,CC(C)(C)CC(C)(C)c1ccc(OS(=O)(=O)c2ccc(C(C)(C)C)cc2)cc1,68 to 71 °C
4,Cc1ccc(C2=C(C#N)C(c3cccc4nonc34)c3c[nH]nc3N2)s1 (stereo not drawn),192 °C
5,Cc1cc(-c2ccc(N(c3ccccc3)c3ccccc3)c(C)c2)ccc1N(c1ccccc1)c1ccccc1,175 to 178 °C
6,COc1ccc2c(N3CCc4c(Br)ccc(C)c43)ncnc2c1,134 to 135 °C
7,CC(C)(C)OC(=O)NCC1(O)CCN(Cc2ccccc2)CC1,109 to 112 °C
8,CCN(CC)CCNC(=O)N(CCS(=O)(=O)c1ccc(OC)cc1)C(C)C,39.5 to 42 °C
9,CCCCc1ccc(N=C2NCCCN2)cc1,116 to 119 °C
10,COc1nc2ccccc2cc1NC(=O)N1CCN(c2cccc3ccccc23)CC1,158 to 160 °C
11,CCOc1c(C(=O)c2cccs2)cnc2[nH]ncc12,202 to 205 °C
12,O=c1cc(-c2ccc(OCc3ccccc3)c(OCc3ccccc3)c2)oc2cc(OCC3CO3)ccc12 (stereo not drawn),168 to 170 °C
13,C1COCCNCCSCCN1,74 to 76 °C
14,Clc1cc(-c2ccccn2)ccn1,80 to 81 °C
15,CN(C)C(=O)c1c(-c2ccc(C(F)(F)F)cc2)ccc2ccccc12,184 to 186 °C
16,Cc1ncccc1Oc1ccc(NC(=O)C=Cc2ccccc2Cl)cn1,187 to 189 °C
17,OCCOc1ccc(C(=S)c2ccc(-c3ccccc3)cc2)c(O)c1,77 to 79 °C
18,Cc1ccsc1C(=O)Cc1ccccc1[N+](=O)[O-],85 to 86.5 °C
19,O=C(NCc1cccs1)C12CC3CC(CC1C3)C2,143 to 145 °C
20,COC(=S)c1ccncc1Cc1ccc(OC)cc1,99 to 100 °C
21,CCCCCCCCCCCCCCCCS(=O)(=O)Nc1cccc2ccc(O)cc12,104 to 107 °C
22,NS(=O)(=O)c1ccc(-c2cnn(C=C(F)C(F)F)c(=O)c2-c2ccc(F)cc2)cc1,190 to 193 °C
23,OC(CNCc1ccccc1)c1ccc(OCc2ccccc2)c(F)c1 (stereo not drawn),113 to 114 °C
